From patent US10676514B2, “CDCA1-derived peptide and vaccine containing same” (ONCOTHERAPY SCIENCE, INC., priority 2014, dated 2020)
“Also recorded” adds a separate entry of the source.

Key:
[1] = system: peptide-pulsed C1R-A03; assay: IFN-gamma ELISA of CTL lines and CTL clones (HLA-A*0301); type: cell-based, human; details: for IFN-gamma production of CTL clones: CTL clones by limiting dilution; for IFN-gamma production of CTL lines: peptide-pulsed vs non-pulsed target cells, HLA-A*0301
Description: (§1) CTLs were propagated in culture using methods similar to those disclosed by Riddell et al. (Walter E A et al., N Engl J Med 1995, 333(16): 1038-44; Riddell S R et al., Nat Med 1996, 2(2): 216-23). The CTLs were co-cultured in a total of 25 ml AIM-V medium containing 5% AS (AIM-V/5% AS) and 40 ng/ml anti-CD3 antibody with two types of Mitomycin C-treated human B lymphoblastoid cell lines at 5×10^6 cells/flask. One day after beginning of the culturing, 120 IU/ml IL-2 was added to the culture. On days 5, 8 and 11, a fresh AIM-V/5% AS medium containing 30 IU/ml IL-2 was added to the culture (Tanaka H et al., Br J Cancer 2001, 84(1): 94-9; Umano Y et al., Br J Cancer 2001, 84(8): 1052-7; Uchida N et al., Clin Cancer Res 2004, 10(24): 8577-86; Suda T et al., Cancer Sci 2006, 97(5): 411-9; Watanabe T et al., Cancer Sci 2005, 96(8): 498-506).
(§2) Dilution of CTLs was carried out to make 0.3, 1 and 3 cells/well in 96 round-bottomed microtiter plates (Nalge Nunc International). The CTLs were co-cultured with two types of Mitomycin C-treated human B lymphoblastoid cell lines at 1×10^4 cells/well in a total of 150 micro-l/well AIM-V/5% AS medium with 30 ng/ml anti-CD3 antibody and 125 IU/ml IL-2. Ten days later, IL-2 was added to the medium at 50 micro-l/well to reach a final concentration of 125 IU/ml. On day 14, the CTL activity was tested, and the CTL clones were propagated using the same method as described above (Uchida N et al., Clin Cancer Res 2004, 10(24): 8577-86; Suda T et al., Cancer Sci 2006, 97(5): 411-9; Watanabe T et al., Cancer Sci 2005, 96(8): 498-506).
Specifically, peptide-pulsed C1R-A03 (1×10^4 cells/well) was prepared as the stimulator cell. The induced CTLs, i.e., CTL lines and CTL clones, were used as the responder cell. The IFN-gamma ELISPOT assay and IFN-gamma ELISA were performed according to the manufacturer's manual.

[2] = system: COS7 cells transfected with CDCA1 and HLA-A*0301; assay: Specific CTL activity against target cells expressing CDCA1 and HLA-A*0301; type: cell-based, African green monkey; details: for specific CTL activity of CTL clones: COS7 cells transfected with both CDCA1 and HLA-A*0301; for specific CTL activity of CTL clones against control cells: COS7 cells transfected with either full-length CDCA1 or HLA-A*0301
From the text: (§3) A cDNA encoding the open-reading frame of a target gene or HLA-A*0301 was amplified by PCR. The PCR-amplified product was cloned into an expression vector. Either or both of the target gene-expressing vector and the HLA-A*0301-expressing vector were transfected into COS7, which is a cell line negative for the target gene and HLA, using Lipofectamine 2000 (Invitrogen) following the manufacturer's recommended protocol. Two days after transfection, the transfected cells were harvested using versene (Invitrogen), and used as the target cell for CTL activity assay (5×10^4 cells/well).
(§4) The CTL clones established against CDCA1-A03-9-219 (SEQ ID NO: 7) (a) and CDCA1-A03-10-400 (SEQ ID NO: 38) (b) were investigated for their ability to recognize target cells expressing CDCA1 and the HLA-A*0301 molecule. COS7 cells transfected with both full-length CDCA1 and the HLA-A*0301 gene (a specific model of target cells expressing CDCA1 and the HLA-A*0301 gene) were prepared as the target cell. COS7 cells transfected with either full-length CDCA1 or HLA-A*0301 were prepared as the control.

[3] = system: peptide-pulsed C1R-A11; assay: IFN-gamma ELISA of CTL lines and CTL clones (HLA-A*1101); type: cell-based, human; details: for IFN-gamma production of CTL clones: CTL clones by limiting dilution
Description: as §1, §2
Specifically, peptide-pulsed C1R-A11 (1×10^4 cells/well) was prepared as the stimulator cell. The induced CTLs, i.e., CTL lines and CTL clones, were used as the responder cell. The IFN-gamma ELISPOT assay and IFN-gamma ELISA were performed according to the manufacturer's manual.

[4] = system: COS7 cells transfected with CDCA1 and HLA-A*1101; assay: Specific CTL activity against target cells expressing CDCA1 and HLA-A*1101; type: cell-based, African green monkey; details: listed as CDCA1-A11-9-219
From the text: as §3, with “HLA-A*1101” for “HLA-A*0301”, “HLA-A*1101-expressing” for “HLA-A*0301-expressing”
as §4, with “clone” for “clones”, “CDCA-A11-9-219” for “CDCA1-A03-9-219”, “was” for “(a) and CDCA1-A03-10-400 (SEQ ID NO: 38) (b) were”, “its” for “their”, “HLA-A*1101” for “HLA-A*0301”

Q: What does the source list for “KIKLGIQQLK (a peptide derived from CDCA1) [SEQ ID NO: 38]”?
A: IFN-gamma production of CTL clones ([1]; peptide-pulsed C1R-A03, listed as CDCA1-A03-10-400): Potent IFN-gamma production; IFN-gamma production of CTL lines [1]: potent IFN-gamma production; specific CTL activity of CTL clones ([2]; listed as CDCA1-A03-10-400): specific CTL activity; also recorded: potent CTL activity; specific CTL activity of CTL clones against control cells ([2]; listed as CDCA1-A03-10-400): a significant specific CTL activity was not shown; also recorded: a significant specific CTL activity was not detected

Q: “KTKRLNELK (a peptide derived from CDCA1) [SEQ ID NO: 7]” was tested. Which “IFN-gamma production of CTL clones” value ([3]; peptide-pulsed C1R-A11, listed as CDCA1-A1-9-219) did it give?
A: Its value is “potent IFN-gamma production”.

Q: What about the “IFN-gamma production of CTL clones” value ([3]; peptide-pulsed C1R-A11, listed as CDCA1-A11-9-219) of the same sequence?
A: The value was “Potent IFN-gamma production”.

Q: And the “IFN-gamma production of CTL lines” value ([3]; CTL lines, peptide-pulsed vs non-pulsed target cells, HLA-A*1101)?
A: Its value is “potent IFN-gamma production”.

Q: What about the “specific CTL activity of CTL clone” value ([4]; COS7 cells transfected with both CDCA1 and HLA-A*1101) of the same sequence?
A: Its value is “specific CTL activity; also recorded: potent CTL activity”.

Q: And the “specific CTL activity of CTL clone against control cells” value ([4]; COS7 cells transfected with either full-length CDCA1 or HLA-A*1101)?
A: Its value is “a significant specific CTL activity was not shown; also recorded: a significant specific CTL activity was not detected”.

Q: What about the “IFN-gamma production of CTL clones” value ([1]; peptide-pulsed C1R-A03, listed as CDCA1-A03-9-219) of the same sequence?
A: The value was “Potent IFN-gamma production”.

Q: What about the “IFN-gamma production of CTL lines” value [1] of the same sequence?
A: The value was “potent IFN-gamma production”.

Q: What about the “specific CTL activity of CTL clones” value ([2]; listed as CDCA1-A03-9-219) of the same sequence?
A: The value was “specific CTL activity; also recorded: potent CTL activity”.

Q: What about the “specific CTL activity of CTL clones against control cells” value ([2]; listed as CDCA1-A03-9-219) of the same sequence?
A: Its value is “a significant specific CTL activity was not shown; also recorded: a significant specific CTL activity was not detected”.
